The subject of test [1] is Staphylococcus aureus. The test is described as follows: Antibacterial activity against Staphylococcus aureus ATCC 14053 at 100 ug/disk by standard petri-plate assay. It counts as functional. Particulars: read-out: IZ.
Test [2] relates to Bacillus subtilis. Nature of the test: Antibacterial activity against Bacillus subtilis ATCC 6051 at 100 ug/disk by standard petri-plate assay. Type of test: functional. Particulars: read-out: IZ.
Test [3] deals with Staphylococcus aureus. The test is described as follows: Antibacterial activity against Staphylococcus aureus ATCC 14053 at 50 ug/disk by standard petri-plate assay. It counts as functional, organism-based.
Test [4] relates to Bacillus subtilis. The test is described as follows: Antibacterial activity against Bacillus subtilis ATCC 6051 at 50 ug/disk by standard petri-plate assay. It counts as functional, organism-based.

The values that follow come from ChEMBL document CHEMBL1141846, “New verticillin and glisoprenin analogues from gliocladium catenulatum, a mycoparasite of aspergillus flavus sclerotia” (1999).

With `CC(O)[C@@]12SS[C@]3(C(=O)N1C)[C@@H](O)C1([C@@]45c6ccccc6N[C@@H]4N4C(=O)[C@]6(C(C)O)SS[C@]4(C(=O)N6C)[C@H]5O)c4ccccc4N[C@@H]1N3C2=O` (stereo partly drawn) [VERTICILLIN D], the figures for the zone of inhibition at 100 µg/disc in the test on Staphylococcus aureus [1] and with Bacillus subtilis [2] were 11 mm and 23 mm, respectively.

As for `CC(=O)[C@@]12SS[C@]3(C(=O)N1C)[C@@H](O)[C@]1([C@@]45c6ccccc6N[C@@H]4N4C(=O)[C@]6(C(C)O)SS[C@]4(C(=O)N6C)[C@H]5O)c4ccccc4N[C@@H]1N3C2=O` (stereo partly drawn) [VERTICILLIN F], the zone of inhibition at 100 µg/disc with Staphylococcus aureus [1] amounted to 11 mm; in the test on Bacillus subtilis [2] it was 23 mm.

GENTAMICIN SULFATE: the inhibition zone (IZ) in the test on Staphylococcus aureus [3] and in the test on Bacillus subtilis [4] was 25 mm each time.

Regarding `CC(=O)[C@@]12SS[C@]3(C(=O)N1C)[C@@H](O)[C@]1([C@@]45c6ccccc6N[C@@H]4N4C(=O)[C@]6(C(C)=O)SS[C@]4(C(=O)N6C)[C@H]5O)c4ccccc4N[C@@H]1N3C2=O` [VERTICILLIN E], the zone of inhibition at 100 µg/disc was determined as 11 mm with Staphylococcus aureus [1] and 23 mm in the test on Bacillus subtilis [2].
